pEC50, pKi: −log10 of the molar value.
Assays:
[1] = biological target: T1, Growth hormone secretagogue receptor type 1 (Homo sapiens, UniProt Q92847); test: Agonist activity at human GHSR1a by FLIPR assay relative to human ghrelin; format: functional
[2] = biological target: T1, Growth hormone secretagogue receptor type 1; test: Agonist activity at human GHSR1a by FLIPR assay; format: functional
[3] = biological target: 5-hydroxytryptamine receptor 1B (Homo sapiens, UniProt P28222); test: Binding affinity to 5HT1B receptor
[4] = test system: Rattus norvegicus; test: Effect on food intake in Sprague-Dawley rat at 3 mg/kg, po after 2 hrs; format: functional
[5] = Oral bioavailability in Sprague-Dawley rat at 3 mg/kg; format: ADME, organism-based; conditions: in vivo
[6] = Clearance in Sprague-Dawley rat at 1 mg/kg, iv; format: ADME, organism-based; design: dose 1 mg/kg, route intravenous; conditions: in vivo
[7] = Half life in Sprague-Dawley rat; format: ADME, organism-based; conditions: in vivo
[8] = Volume of distribution at steady state in Sprague-Dawley rat; format: ADME, organism-based; conditions: in vivo, read-out: Vdss

T1 sequence (Q92847 whole entry): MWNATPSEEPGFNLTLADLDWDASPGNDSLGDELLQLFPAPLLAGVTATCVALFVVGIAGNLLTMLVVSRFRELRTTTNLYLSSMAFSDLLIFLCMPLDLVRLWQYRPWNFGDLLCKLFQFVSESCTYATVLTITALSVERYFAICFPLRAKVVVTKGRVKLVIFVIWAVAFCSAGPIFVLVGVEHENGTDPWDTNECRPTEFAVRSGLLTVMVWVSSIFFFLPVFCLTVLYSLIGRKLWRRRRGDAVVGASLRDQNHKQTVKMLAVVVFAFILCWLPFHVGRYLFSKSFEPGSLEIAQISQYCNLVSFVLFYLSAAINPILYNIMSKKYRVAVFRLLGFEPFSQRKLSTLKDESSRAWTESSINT
Chain of 5-hydroxytryptamine receptor 1B (P28222 whole entry): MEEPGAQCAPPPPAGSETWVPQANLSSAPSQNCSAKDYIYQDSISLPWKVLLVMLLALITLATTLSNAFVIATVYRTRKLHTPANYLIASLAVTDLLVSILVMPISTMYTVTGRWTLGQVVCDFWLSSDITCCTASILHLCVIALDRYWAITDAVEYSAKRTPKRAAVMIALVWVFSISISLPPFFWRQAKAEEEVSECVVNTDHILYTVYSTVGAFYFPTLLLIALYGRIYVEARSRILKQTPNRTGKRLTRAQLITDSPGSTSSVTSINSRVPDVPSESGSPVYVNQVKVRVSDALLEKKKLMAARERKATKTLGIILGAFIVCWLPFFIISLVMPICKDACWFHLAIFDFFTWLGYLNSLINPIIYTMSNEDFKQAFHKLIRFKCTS

Row | Intrinsic activity [1] | pEC50 [2] | Compound | also measured
1 | 0.8 | 7.40 | COc1ccc(N2C[C@@H](C)N[C@@H](C)C2)cc1NS(=O)(=O)c1ccc(N2CCCC2=O)cc1 | 
2 | 0.6 | 6.50 | COc1ccc(N2C[C@@H](C)N[C@@H](C)C2)cc1NS(=O)(=O)c1ccc(-c2cncnc2)cc1 | 
3 | 0.9 | 7.80 | COc1ccc(NS(=O)(=O)c2ccc(-c3ccccn3)s2)cc1N1C[C@@H](C)N[C@@H](C)C1 | 
4 | 0.8 | 7.00 | COc1ccc(N2C[C@@H](C)N[C@@H](C)C2)cc1NS(=O)(=O)c1ccc(OCc2ccccc2)cc1 | 
5 | 1 | 9.30 | COc1ccc(N2C[C@@H](C)N[C@@H](C)C2)cc1NS(=O)(=O)c1ccc(-c2cc(Cl)ccc2F)cc1 | 
6 | 0.8 | 7.00 | C[C@@H]1CN(c2ccc(F)c(NS(=O)(=O)c3ccc(-c4ccccn4)s3)c2)C[C@H](C)N1 | 
7 | 1 | 8.40 | COc1ccc(N2C[C@@H](C)N[C@@H](C)C2)cc1NS(=O)(=O)c1ccc(-c2cccs2)cc1 | pKi [3]: < 5.50; Activity [4]: 292%; bioavailability [5]: 74%; clearance [6]: 26 mL/min/kg; half-life [7]: 1 h; Vd [8]: 1.6 L/kg
8 | 0.9 | 6.20 | C[C@@H]1CN(c2cc(NS(=O)(=O)c3ccc(-c4ccccn4)s3)ccc2C#N)C[C@H](C)N1 | 
9 | 1 | 7.40 | C[C@@H]1CN(c2ccc(Cl)c(NS(=O)(=O)c3ccc(-c4ccccn4)s3)c2)C[C@H](C)N1 | 
10 | 1 | 8.70 | COc1cccc(-c2ccc(S(=O)(=O)Nc3cc(N4C[C@@H](C)N[C@@H](C)C4)ccc3OC)cc2)c1 | 
11 | 0.9 | 8.60 | COc1ccc(N2C[C@@H](C)N[C@@H](C)C2)cc1NS(=O)(=O)c1ccc(-c2cnco2)s1 | 
12 | 0.7 | 6.50 | COc1ccc(N2C[C@@H](C)N[C@@H](C)C2)cc1NS(=O)(=O)c1ccc(-c2ccncc2)cc1 | 
13 | 0.8 | 7.40 | C[C@@H]1CN(c2cccc(NS(=O)(=O)c3ccc(-c4ccccn4)s3)c2)C[C@H](C)N1 | 
14 | 1 | 7.70 | COc1ccc(N2C[C@@H](C)N[C@@H](C)C2)cc1NS(=O)(=O)c1cccc(-c2ccco2)c1 | 
15 | 0.9 | 7.40 | CC(=O)c1ccc(N2C[C@@H](C)N[C@@H](C)C2)cc1NS(=O)(=O)c1ccc(-c2ccccn2)s1 | 
16 | 0.9 | 8.70 | COc1ccc(N2C[C@@H](C)N[C@@H](C)C2)cc1NS(=O)(=O)c1ccc(-c2cccs2)cc1F | 
17 | 0.8 | 7.80 | COc1ccc(N2C[C@@H](C)N[C@@H](C)C2)cc1NS(=O)(=O)c1ccc(-n2cccn2)cc1 | 
18 | 0.9 | 7.20 | COc1ccc(N2C[C@@H](C)N[C@@H](C)C2)cc1NS(=O)(=O)c1ccc(Oc2ccccc2)cc1 | 
19 | 0.9 | 6.10 | C[C@@H]1CN(c2ccc(C(=O)N(C)C)c(NS(=O)(=O)c3ccc(-c4ccccn4)s3)c2)C[C@H](C)N1 | 
20 | 1.1 | 8.00 | COc1ccc(N2C[C@@H](C)N[C@@H](C)C2)cc1NS(=O)(=O)c1ccc(-c2ccccn2)s1 | 
21 | 1 | 6.80 | COc1ccc(N2C[C@@H](C)N[C@@H](C)C2)cc1NS(=O)(=O)c1cccc(-c2ccccc2)c1 | 
22 | 0.7 | 6.90 | COc1ccc(N2C[C@@H](C)N[C@@H](C)C2)cc1NS(=O)(=O)c1ccc(Br)cc1 | 
23 | 1 | 8.20 | COc1ccc(N2C[C@@H](C)N[C@@H](C)C2)cc1NS(=O)(=O)c1ccc(-c2ccccc2)cc1 | 
24 | 0.8 | 7.40 | CCOc1ccc(N2C[C@@H](C)N[C@@H](C)C2)cc1NS(=O)(=O)c1ccc(-c2ccccn2)s1 | 
25 | 0.9 | 9.10 | COc1ccc(N2C[C@@H](C)N[C@@H](C)C2)cc1NS(=O)(=O)c1ccc(-c2cccs2)cc1Cl | 
26 | 1.1 | 7.00 | CC(C)Oc1ccc(N2C[C@@H](C)N[C@@H](C)C2)cc1NS(=O)(=O)c1ccc(-c2ccccn2)s1 | 
27 | 0.9 | 8.40 | COc1ccc(N2C[C@@H](C)N[C@@H](C)C2)cc1NS(=O)(=O)c1ccc(-c2ccco2)cc1 | 
28 | 1 | 9.10 | COc1ccc(N2C[C@@H](C)N[C@@H](C)C2)cc1NS(=O)(=O)c1ccc(-c2ccc(C)o2)cc1 | pKi [3]: < 5.50; Activity [4]: 544%; bioavailability [5]: 75%; clearance [6]: 24 mL/min/kg; half-life [7]: 1.9 h; Vd [8]: 3.3 L/kg
29 | 1.2 | 9.40 | COc1ccc(F)c(-c2ccc(S(=O)(=O)Nc3cc(N4C[C@@H](C)N[C@@H](C)C4)ccc3OC)cc2)c1 | 

— ChEMBL document CHEMBL1144045, “Potent achiral agonists of the growth hormone secretagogue (ghrelin) receptor. Part 2: Lead optimisation” (Bioorg Med Chem Lett, 2008)
